Results reported in publication PMC8959600 (eLife, 2022).

Tests used:
[1] = tested on: enteric pathogens (Salmonella spp., Shigella spp., K. pneumoniae, and E. coli); assay: Checkerboard synergy assay (FIC), Gram-negative MDR clinical isolates; format: cell-based; conditions: Tebipenem/LpxC inhibitor combination, all tested enteric pathogens
Description: Before initiating drug combination assays, the MIC values for both compounds were determined against Shigella (Sf2457T), Salmonella (St14028), and E. coli (EcDH5a) isolates. […] 20 μM moxifloxacin was used as negative control (100% bacterial growth inhibition) in one column and DMSO as positive control (100% bacterial growth). A total of 25 µl of 1 × 10^6 CFU/mL bacterial culture was added to each well of a 384-well plate (μClear; Greiner Bio‐One). Plates were incubated overnight at 37 °C. Next, 10 µl of resazurin were added and plates were incubated at room temperature for 3 hr. Bacterial growth inhibition was measured by fluorescence in a Envision plate reader (PerkinElmer). All assays were performed in duplicate. Combination studies with clinical isolates were performed in 96-well plates (Greiner) adding 200 μl of 1 × 10^6 CFU/mL bacterial culture and following the same checkboard titration method as described above. The range of final working concentrations of each antimicrobial was adjusted based on the MIC of each selected organism.
MICs were determined for drug A and drug B alone and in combination. […]

[2] = Intestinal distribution by MALDI imaging in mice; format: in vivo; conditions: 60 min after oral pro-drug
Description: One animal was euthanised at 0.25, 0.5, 1, and 4 hr respectively and 2.5–3 cm sections of the intestine (duodenum, jejunum, ileum, caecum, and colon) were collected and frozen at –80 °C. For quantitative LCMS analysis of intestine homogenate, samples were thawed at ambient temperature, mixed with water (1:1) and homogenised by turrax (10 sec). Subsequently, 20 µL of homogenate were mixed with 200 µl of ACN: MeOH (80:20) and filtered using 0.2 µm filter plate (Whatman). LCMS analysis was performed as described in previous section. For MALDI imaging, 50 mm of the central part of each intestinal section were cut and mounted in a sample disc on dry ice with a solution of 1% methylcellulose (Sigma Aldrich, UK). Next, tissue sections of 12 µm (sagital sections) were obtained using a cryostat (Leica CM3600; Leica Microsystems Inc, Wetzlar, Germany) at –20 °C and collected in conductive-coated slides for MALDI Imaging (Bruker Daltonic). After the ‘MALDI’ section was obtained a consecutive section for histology was taken. Prior to matrix coating, samples for MALDI were optical scanned in a PathScanner. The matrix deposition was conducted in a sprayer ImagePrep System (Bruker Daltonic) which uses vibrational vaporisation technology. As matrix solution α-CHCA (α-Cyano-4-hydroxycinnamic acid (Sigma Aldrich) dissolved in 70:30 methanol/water (v/v) containing 0.2% TFA at 7 mg/mL was used. MALDI MSI data were obtained using a Bruker UltrafleXtream MALDI TOF/TOF (Bruker Daltonic, Germany)).
Both compounds were analysed in positive mode using a LIFT method. For Tebipenem, parent compound was 384.32 and the detection mass window between m/z 0–400. 298.164 were the most intensive fragment. […] We used a laser shut at 85% power with a 50 μm step size, 100 times at raster spot in random wak mode. FlexImaging 4.1(bruker Daltoninc, Germany) were used for the data visualisation. […]
MALDI Imaging is not a quantitative technique, therefore, the colour scale of images is relative to the maximum intensity (100 corresponds with the maximal signa in each slide). […]

Structure (SMILES): C[C@@H](O)[C@H]1C(=O)N2C(C(=O)O)=C(SC3CN(C4=NCCS4)C3)[C@H](C)[C@H]12 [Tebipenem]
- interaction (FIC index) [1]: indifference or partial synergy
- MALDI detection in the intestinal lumen [2]: could be detected in the lumen and enterocytes throughout the gut
